Reference: ChEMBL document CHEMBL1132116, “Abasic site recognition in DNA as a new strategy to potentiate the action of anticancer alkylating drugs?” (1999)

Key:
Mus musculus [1] = organism: Mus musculus; test: Rate of survival of treated Mice to survival of controls * 100; assay type: functional
Mus musculus [2] = test: Number of surviving Mice after 60 days of administration of the compound; Survivals= 0/6; assay type: functional
Mus musculus [3] = test: Number of surviving Mice in the presence (N,N''-bis(2-chloroethyl)-N-nitrosourea) of BCNU after 60 days of administration of the compound; Survivals= 6/6; assay type: functional
P388 = test: Inhibitory activity against P388 murine leukemia at 2 mg/kg concentration; assay type: functional, Mus musculus

SMILES: COc1ccc2nc3cc(Cl)ccc3c(NCCCN(CCCN(CCn3cnc4c(N)ncnc43)C(=N)N)C(=N)N)c2c1
- T/C (Mus musculus [1]): 109
- Survival (Mus musculus [2]): 0
- Survival (Mus musculus [3]): 6
- Survival (P388): 16.2 days
